{"source": "PubChem BioAssay (NCI)", "assay_in_all_cases": "DTP human tumour cell line panel, 48 h", "key": {"786-0 renal": {"system": "786-0 renal"}, "A498 renal": {"system": "A498 renal"}, "ACHN renal": {"system": "ACHN renal"}, "BT-549 breast": {"system": "BT-549 breast"}, "CAKI-1 renal": {"system": "CAKI-1 renal"}, "CCRF-CEM leukemia": {"system": "CCRF-CEM leukemia"}, "COLO 205 colon": {"system": "COLO 205 colon"}, "DU-145 prostate": {"system": "DU-145 prostate"}, "EKVX NSCLC": {"system": "EKVX NSCLC"}, "HCT-15 colon": {"system": "HCT-15 colon"}, "HL-60(TB) leukemia": {"system": "HL-60(TB) leukemia"}, "HOP-62 NSCLC": {"system": "HOP-62 NSCLC"}, "HOP-92 NSCLC": {"system": "HOP-92 NSCLC"}, "HS 578T breast": {"system": "HS 578T breast"}, "HT29 colon": {"system": "HT29 colon"}, "IGROV1 ovarian": {"system": "IGROV1 ovarian"}, "K-562 leukemia": {"system": "K-562 leukemia"}, "LOX IMVI melanoma": {"system": "LOX IMVI melanoma"}, "M14 melanoma": {"system": "M14 melanoma"}, "MALME-3M melanoma": {"system": "MALME-3M melanoma"}, "MCF7 breast": {"system": "MCF7 breast"}, "MDA-MB-231 breast": {"system": "MDA-MB-231 breast"}, "MDA-MB-435": {"system": "MDA-MB-435"}, "MOLT-4 leukemia": {"system": "MOLT-4 leukemia"}, "NCI-H226 lung": {"system": "NCI-H226 lung"}, "NCI-H23 lung": {"system": "NCI-H23 lung"}, "NCI-H522 lung": {"system": "NCI-H522 lung"}, "NCI/ADR-RES ovarian": {"system": "NCI/ADR-RES ovarian"}, "OVCAR-3 ovarian": {"system": "OVCAR-3 ovarian"}, "OVCAR-4 ovarian": {"system": "OVCAR-4 ovarian"}, "OVCAR-5 ovarian": {"system": "OVCAR-5 ovarian"}, "OVCAR-8 ovarian": {"system": "OVCAR-8 ovarian"}, "PC-3 prostate": {"system": "PC-3 prostate"}, "RPMI-8226 leukemia": {"system": "RPMI-8226 leukemia"}, "RXF 393 renal": {"system": "RXF 393 renal"}, "SF-268 CNS": {"system": "SF-268 CNS"}, "SF-295 CNS": {"system": "SF-295 CNS"}, "SF-539 CNS": {"system": "SF-539 CNS"}, "SK-MEL-2 melanoma": {"system": "SK-MEL-2 melanoma"}, "SK-MEL-5 melanoma": {"system": "SK-MEL-5 melanoma"}, "SN12C renal": {"system": "SN12C renal"}, "SNB-75 CNS": {"system": "SNB-75 CNS"}, "SR leukemia": {"system": "SR leukemia"}, "SW-620 colon": {"system": "SW-620 colon"}, "T-47D breast": {"system": "T-47D breast"}, "U251 CNS": {"system": "U251 CNS"}, "UACC-257 melanoma": {"system": "UACC-257 melanoma"}, "UACC-62 melanoma": {"system": "UACC-62 melanoma"}, "UO-31 renal": {"system": "UO-31 renal"}}, "note": "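1) Cells in 96-well plates. 2) Compound, 48 h, 5 concentrations. 3) Linear interpolation between surrounding doses. 4) Unreached endpoint = highest concentration. At the GI50, growth is halved. At the TGI there is no net growth.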"}
{"smiles": "COC(=O)c1c2c(c(C)[n+]([O-])c1C)C(=O)C=C(NCc1cccc(OC)c1)C2=O", "values": [{"measurement": "GI50", "setting": "786-0 renal", "result": 1880, "unit": "nM"}, {"measurement": "TGI", "setting": "786-0 renal", "result": 4850, "unit": "nM"}, {"measurement": "GI50", "setting": "A498 renal", "result": 1310, "unit": "nM"}, {"measurement": "TGI", "setting": "A498 renal", "result": 2590, "unit": "nM"}, {"measurement": "GI50", "setting": "ACHN renal", "result": 1010, "unit": "nM"}, {"measurement": "TGI", "setting": "ACHN renal", "result": 2190, "unit": "nM"}, {"measurement": "GI50", "setting": "BT-549 breast", "result": 1290, "unit": "nM"}, {"measurement": "TGI", "setting": "BT-549 breast", "result": 2650, "unit": "nM"}, {"measurement": "GI50", "setting": "CAKI-1 renal", "result": 696, "unit": "nM"}, {"measurement": "TGI", "setting": "CAKI-1 renal", "result": 2220, "unit": "nM"}, {"measurement": "GI50", "setting": "CCRF-CEM leukemia", "result": 471, "unit": "nM"}, {"measurement": "GI50", "setting": "COLO 205 colon", "result": 293, "unit": "nM"}, {"measurement": "TGI", "setting": "COLO 205 colon", "result": 928, "unit": "nM"}, {"measurement": "GI50", "setting": "DU-145 prostate", "result": 1060, "unit": "nM"}, {"measurement": "TGI", "setting": "DU-145 prostate", "result": 2290, "unit": "nM"}, {"measurement": "GI50", "setting": "EKVX NSCLC", "result": 1010, "unit": "nM"}, {"measurement": "TGI", "setting": "EKVX NSCLC", "result": 2260, "unit": "nM"}, {"measurement": "GI50", "setting": "HCT-15 colon", "result": 331, "unit": "nM"}, {"measurement": "TGI", "setting": "HCT-15 colon", "result": 1610, "unit": "nM"}, {"measurement": "GI50", "setting": "HL-60(TB) leukemia", "result": 317, "unit": "nM"}, {"measurement": "TGI", "setting": "HL-60(TB) leukemia", "result": 1150, "unit": "nM"}, {"measurement": "GI50", "setting": "HOP-62 NSCLC", "result": 1580, "unit": "nM"}, {"measurement": "TGI", "setting": "HOP-62 NSCLC", "result": 3390, "unit": "nM"}, {"measurement": "GI50", "setting": "HOP-92 NSCLC", "result": 1990, "unit": "nM"}, {"measurement": "TGI", "setting": "HOP-92 NSCLC", "result": 4700, "unit": "nM"}, {"measurement": "GI50", "setting": "HS 578T breast", "result": 1640, "unit": "nM"}, {"measurement": "TGI", "setting": "HS 578T breast", "result": 6250, "unit": "nM"}, {"measurement": "GI50", "setting": "HT29 colon", "result": 370, "unit": "nM"}, {"measurement": "TGI", "setting": "HT29 colon", "result": 1540, "unit": "nM"}, {"measurement": "GI50", "setting": "IGROV1 ovarian", "result": 579, "unit": "nM"}, {"measurement": "TGI", "setting": "IGROV1 ovarian", "result": 2180, "unit": "nM"}, {"measurement": "GI50", "setting": "K-562 leukemia", "result": 370, "unit": "nM"}, {"measurement": "TGI", "setting": "K-562 leukemia", "result": 6510, "unit": "nM"}, {"measurement": "GI50", "setting": "LOX IMVI melanoma", "result": 249, "unit": "nM"}, {"measurement": "TGI", "setting": "LOX IMVI melanoma", "result": 1440, "unit": "nM"}, {"measurement": "GI50", "setting": "M14 melanoma", "result": 405, "unit": "nM"}, {"measurement": "TGI", "setting": "M14 melanoma", "result": 1540, "unit": "nM"}, {"measurement": "GI50", "setting": "MALME-3M melanoma", "result": 150, "unit": "nM"}, {"measurement": "TGI", "setting": "MALME-3M melanoma", "result": 341, "unit": "nM"}, {"measurement": "GI50", "setting": "MCF7 breast", "result": 258, "unit": "nM"}, {"measurement": "TGI", "setting": "MCF7 breast", "result": 826, "unit": "nM"}, {"measurement": "GI50", "setting": "MDA-MB-231 breast", "result": 358, "unit": "nM"}, {"measurement": "TGI", "setting": "MDA-MB-231 breast", "result": 4830, "unit": "nM"}, {"measurement": "GI50", "setting": "MDA-MB-435", "result": 178, "unit": "nM"}, {"measurement": "TGI", "setting": "MDA-MB-435", "result": 330, "unit": "nM"}, {"measurement": "GI50", "setting": "MOLT-4 leukemia", "result": 1090, "unit": "nM"}, {"measurement": "TGI", "setting": "MOLT-4 leukemia", "result": 3540, "unit": "nM"}, {"measurement": "GI50", "setting": "NCI-H226 lung", "result": 1720, "unit": "nM"}, {"measurement": "TGI", "setting": "NCI-H226 lung", "result": 4480, "unit": "nM"}, {"measurement": "GI50", "setting": "NCI-H23 lung", "result": 515, "unit": "nM"}, {"measurement": "TGI", "setting": "NCI-H23 lung", "result": 2570, "unit": "nM"}, {"measurement": "GI50", "setting": "NCI-H522 lung", "result": 429, "unit": "nM"}, {"measurement": "TGI", "setting": "NCI-H522 lung", "result": 2240, "unit": "nM"}, {"measurement": "GI50", "setting": "NCI/ADR-RES ovarian", "result": 441, "unit": "nM"}, {"measurement": "TGI", "setting": "NCI/ADR-RES ovarian", "result": 3150, "unit": "nM"}, {"measurement": "GI50", "setting": "OVCAR-3 ovarian", "result": 257, "unit": "nM"}, {"measurement": "TGI", "setting": "OVCAR-3 ovarian", "result": 743, "unit": "nM"}, {"measurement": "GI50", "setting": "OVCAR-4 ovarian", "result": 246, "unit": "nM"}, {"measurement": "TGI", "setting": "OVCAR-4 ovarian", "result": 993, "unit": "nM"}, {"measurement": "GI50", "setting": "OVCAR-5 ovarian", "result": 1310, "unit": "nM"}, {"measurement": "TGI", "setting": "OVCAR-5 ovarian", "result": 2770, "unit": "nM"}, {"measurement": "GI50", "setting": "OVCAR-8 ovarian", "result": 290, "unit": "nM"}, {"measurement": "TGI", "setting": "OVCAR-8 ovarian", "result": 1400, "unit": "nM"}, {"measurement": "GI50", "setting": "PC-3 prostate", "result": 333, "unit": "nM"}, {"measurement": "TGI", "setting": "PC-3 prostate", "result": 2730, "unit": "nM"}, {"measurement": "GI50", "setting": "RPMI-8226 leukemia", "result": 848, "unit": "nM"}, {"measurement": "TGI", "setting": "RPMI-8226 leukemia", "result": 4290, "unit": "nM"}, {"measurement": "GI50", "setting": "RXF 393 renal", "result": 1270, "unit": "nM"}, {"measurement": "TGI", "setting": "RXF 393 renal", "result": 2630, "unit": "nM"}, {"measurement": "GI50", "setting": "SF-268 CNS", "result": 1260, "unit": "nM"}, {"measurement": "TGI", "setting": "SF-268 CNS", "result": 4210, "unit": "nM"}, {"measurement": "GI50", "setting": "SF-295 CNS", "result": 772, "unit": "nM"}, {"measurement": "TGI", "setting": "SF-295 CNS", "result": 2100, "unit": "nM"}, {"measurement": "GI50", "setting": "SF-539 CNS", "result": 879, "unit": "nM"}, {"measurement": "TGI", "setting": "SF-539 CNS", "result": 2110, "unit": "nM"}, {"measurement": "GI50", "setting": "SK-MEL-2 melanoma", "result": 1150, "unit": "nM"}, {"measurement": "TGI", "setting": "SK-MEL-2 melanoma", "result": 2780, "unit": "nM"}, {"measurement": "GI50", "setting": "SK-MEL-5 melanoma", "result": 171, "unit": "nM"}, {"measurement": "TGI", "setting": "SK-MEL-5 melanoma", "result": 334, "unit": "nM"}, {"measurement": "GI50", "setting": "SN12C renal", "result": 323, "unit": "nM"}, {"measurement": "TGI", "setting": "SN12C renal", "result": 1240, "unit": "nM"}, {"measurement": "GI50", "setting": "SNB-75 CNS", "result": 1640, "unit": "nM"}, {"measurement": "TGI", "setting": "SNB-75 CNS", "result": 3010, "unit": "nM"}, {"measurement": "GI50", "setting": "SR leukemia", "result": 561, "unit": "nM"}, {"measurement": "TGI", "setting": "SR leukemia", "result": 8110, "unit": "nM"}, {"measurement": "GI50", "setting": "SW-620 colon", "result": 318, "unit": "nM"}, {"measurement": "TGI", "setting": "SW-620 colon", "result": 1260, "unit": "nM"}, {"measurement": "GI50", "setting": "T-47D breast", "result": 286, "unit": "nM"}, {"measurement": "TGI", "setting": "T-47D breast", "result": 1620, "unit": "nM"}, {"measurement": "GI50", "setting": "U251 CNS", "result": 646, "unit": "nM"}, {"measurement": "TGI", "setting": "U251 CNS", "result": 2080, "unit": "nM"}, {"measurement": "GI50", "setting": "UACC-257 melanoma", "result": 254, "unit": "nM"}, {"measurement": "TGI", "setting": "UACC-257 melanoma", "result": 786, "unit": "nM"}, {"measurement": "GI50", "setting": "UACC-62 melanoma", "result": 250, "unit": "nM"}, {"measurement": "TGI", "setting": "UACC-62 melanoma", "result": 1070, "unit": "nM"}, {"measurement": "GI50", "setting": "UO-31 renal", "result": 1130, "unit": "nM"}, {"measurement": "TGI", "setting": "UO-31 renal", "result": 2440, "unit": "nM"}]}
